One experiment deals with Dipeptidyl peptidase 9 (Homo sapiens, UniProt Q86TI2).
Another experiment deals with Dipeptidyl peptidase 2 (Homo sapiens, UniProt Q9UHL4). Put plainly: Inhibition of human recombinant DPP7 expressed in baculovirus-infected Sf9 cells by fluorescence plate reader method.

As usually defined, the IC50 is the concentration that inhibits the measured activity by half.

Where only a bound is given, the exact number is not on record here.

Chain of Dipeptidyl peptidase 9 (Q86TI2 whole entry): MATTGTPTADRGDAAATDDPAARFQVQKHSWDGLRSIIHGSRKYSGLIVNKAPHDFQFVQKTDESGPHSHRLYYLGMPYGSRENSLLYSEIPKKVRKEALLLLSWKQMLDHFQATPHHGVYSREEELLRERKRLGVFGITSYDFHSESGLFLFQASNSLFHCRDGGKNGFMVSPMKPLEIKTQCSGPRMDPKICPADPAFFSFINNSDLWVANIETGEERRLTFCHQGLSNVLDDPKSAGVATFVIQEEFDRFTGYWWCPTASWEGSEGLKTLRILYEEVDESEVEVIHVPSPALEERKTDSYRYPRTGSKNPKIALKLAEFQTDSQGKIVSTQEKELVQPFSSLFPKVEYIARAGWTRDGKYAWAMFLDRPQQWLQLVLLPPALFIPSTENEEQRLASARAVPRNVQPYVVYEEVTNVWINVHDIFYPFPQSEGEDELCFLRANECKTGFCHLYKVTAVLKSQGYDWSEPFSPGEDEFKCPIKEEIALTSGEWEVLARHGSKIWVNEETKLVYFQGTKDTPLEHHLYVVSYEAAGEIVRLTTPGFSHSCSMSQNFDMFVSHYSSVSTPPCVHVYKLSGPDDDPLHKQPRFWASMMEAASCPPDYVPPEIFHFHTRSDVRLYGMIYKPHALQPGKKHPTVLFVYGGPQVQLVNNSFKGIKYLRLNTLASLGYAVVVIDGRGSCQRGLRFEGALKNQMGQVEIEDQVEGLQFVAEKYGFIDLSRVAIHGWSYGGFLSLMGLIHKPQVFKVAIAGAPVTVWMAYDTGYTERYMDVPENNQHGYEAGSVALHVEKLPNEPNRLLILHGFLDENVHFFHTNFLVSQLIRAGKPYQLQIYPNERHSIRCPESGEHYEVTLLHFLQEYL

Turning to `COc1ccc(N2CCN(CCNCC(=O)N3CCCC3C#N)C2=O)cc1OC` (single isomer, unassigned), the 50% inhibitory concentration (IC50) against Dipeptidyl peptidase 9 and on Dipeptidyl peptidase 2 was greater than 100 µM throughout.

The values above are taken from ChEMBL document CHEMBL1153009, “Synthesis and evaluation of structurally constrained imidazolidin derivatives as potent dipeptidyl peptidase IV inhibitors” (Eur J Med Chem, 2009).
